Data from PubChem BioAssay AID540349 (The Scripps Research Institute Molecular Screening Center, 2011).
Active and inactive are the calls of the source. No rule for the calls is given here.

Target: Sphingosine 1-phosphate receptor 3 (Homo sapiens) (UniProt Q99500)
Assay: S1P3 receptor agonists, SAR follow-up, cell-based, fluorescence, synthesized compounds (AID 540349)
Conditions: S1P3-expressing cells, agonist fluorescence read-out

Sphingosine 1-phosphate receptor 3 (Homo sapiens), sequence (Q99500 whole entry, looked up): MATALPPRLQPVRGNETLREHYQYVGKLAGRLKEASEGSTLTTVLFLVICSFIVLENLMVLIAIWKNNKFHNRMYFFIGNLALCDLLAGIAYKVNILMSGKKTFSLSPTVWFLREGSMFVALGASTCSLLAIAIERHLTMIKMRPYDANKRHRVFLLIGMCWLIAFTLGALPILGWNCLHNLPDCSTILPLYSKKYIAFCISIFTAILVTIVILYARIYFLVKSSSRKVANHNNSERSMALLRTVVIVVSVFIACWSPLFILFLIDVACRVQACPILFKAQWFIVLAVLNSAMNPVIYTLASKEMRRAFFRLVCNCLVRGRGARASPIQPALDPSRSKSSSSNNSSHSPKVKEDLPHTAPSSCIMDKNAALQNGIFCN

CC1CCCCC1N(C(=O)c1cc(C2CC2)on1)C1CCCC1 (configuration not stated)
EC50 (run 1): 2610 nM
EC50 (run 2): 1080 nM
EC50 (run 3): 1530 nM

CC(C)c1cc(C(=O)N(C2CCCCC2)C2CCCCC2)no1
EC50 (run 1): 1410 nM
EC50 (run 2): 799 nM
EC50 (run 3): 668 nM

CC1CCCCC1N(C(=O)c1cc(C2CC2)on1)C1CCCCC1 (configuration not stated)
EC50 (run 1): 349 nM
EC50 (run 2): 326 nM
EC50 (run 3): 337 nM

O=C(c1cc(C2CC2)on1)N(CC1CCCCC1)C1CCCCC1
EC50 (run 1): 6400 nM
EC50 (run 2): 2160 nM
EC50 (run 3): 1730 nM

O=C(c1cc(C2CC2)on1)N(Cc1ccccc1)Cc1ccccc1
EC50 (run 1): > 10000 nM (inactive)
EC50 (run 2): > 50000 nM (inactive)
EC50 (run 3): > 50000 nM (inactive)

CC(C)Cc1cc(C(=O)N(C2CCCCC2)C2CCCCC2)no1
EC50 (run 1): 2080 nM
EC50 (run 2): 785 nM
EC50 (run 3): 1260 nM

O=C(c1noc2ccccc12)N(C1CCCCC1)C1CCCCC1
EC50 (run 1): > 10000 nM (inactive)
EC50 (run 2): > 50000 nM (inactive)
EC50 (run 3): > 50000 nM (inactive)

O=C(c1coc(C2CC2)n1)N(C1CCCCC1)C1CCCCC1
EC50 (run 1): > 10000 nM (inactive)
EC50 (run 2): > 50000 nM (inactive)
EC50 (run 3): > 50000 nM (inactive)

COc1ccc(N(Cc2ccccc2)C(=O)c2cc(C3CC3)on2)cc1
EC50 (run 1): > 10000 nM (inactive)
EC50 (run 2): inactive
EC50 (run 3): inactive

O=C(c1cc(C2CC2)on1)N(C1CCCCCC1)C1CCCC1
EC50 (run 1): 3910 nM
EC50 (run 2): 2390 nM
EC50 (run 3): 1960 nM

O=C(c1cc(C2CC2)on1)N(Cc1ccccc1)c1ccccc1
EC50 (run 1): 7620 nM
EC50 (run 2): 8130 nM
EC50 (run 3): 5250 nM

O=C(c1cc(-c2ccccc2)on1)N(C1CCCCC1)C1CCCC1
EC50 (run 1): 1550 nM
EC50 (run 2): 519 nM
EC50 (run 3): 472 nM

CC1CCCCC1N(C(=O)c1cc(C2CC2)on1)C1CCOCC1 (configuration not stated)
EC50 (run 1): > 10000 nM (inactive)
EC50 (run 2): 2230 nM
EC50 (run 3): 3410 nM

COc1ccc(-c2cc(C(=O)N(C3CCCCC3)C3CCCCC3)no2)cc1OC
EC50 (run 1): > 10000 nM (inactive)
EC50 (run 2): > 50000 nM (inactive)
EC50 (run 3): > 50000 nM (inactive)

O=C(NC1CCCCC1)c1cc(C2CC2)on1
EC50 (run 1): > 10000 nM (inactive)
EC50 (run 2): > 50000 nM (inactive)
EC50 (run 3): > 50000 nM (inactive)

O=C(c1cc(C2CC2)on1)N(Cc1ccccc1)c1ccccn1
EC50 (run 1): 6890 nM
EC50 (run 2): 7540 nM
EC50 (run 3): 5230 nM

CC1CCCCC1N(C(=O)c1cc(C2CC2)on1)C1CCCCCC1 (configuration not stated)
EC50 (run 1): 842 nM
EC50 (run 2): 285 nM
EC50 (run 3): 478 nM

O=C(c1cc(C2CC2)on1)N(C1CCCCC1)C1CCCC1
EC50 (run 1): 2770 nM
EC50 (run 2): 1220 nM
EC50 (run 3): 1060 nM

O=C(c1ccc(C2CC2)o1)N(C1CCCCC1)C1CCCCC1
EC50 (run 1): > 10000 nM (inactive)
EC50 (run 2): > 50000 nM (inactive)
EC50 (run 3): > 50000 nM (inactive)

CCOc1ccc(-c2nc(C(=O)N(C3CCCCC3)C3CCCCC3)co2)cc1OCC
EC50 (run 1): > 10000 nM (inactive)
EC50 (run 2): 8010 nM
EC50 (run 3): 8130 nM

CCCc1cc(C(=O)N(C2CCCCC2)C2CCCC2)no1
EC50 (run 1): > 10000 nM (inactive)
EC50 (run 2): inactive
EC50 (run 3): 5670 nM

CCN(CC)C(=O)c1cc(C2CC2)on1
EC50 (run 1): > 10000 nM (inactive)
EC50 (run 2): > 50000 nM (inactive)
EC50 (run 3): > 50000 nM (inactive)

O=C(c1cc(C2CC2)on1)N(C1CCCCC1)C1CCCCC1
EC50 (run 1): 72.3 nM
EC50 (run 2): 132 nM
EC50 (run 3): 112 nM

CCCc1cc(C(=O)NC2CCCCC2)no1
EC50 (run 1): > 10000 nM (inactive)
EC50 (run 2): > 50000 nM (inactive)
EC50 (run 3): > 50000 nM (inactive)

CC1CCCCC1N(C(=O)c1cc(C2CC2)on1)C1CCCCC1C (configuration not stated)
EC50 (run 1): 280 nM
EC50 (run 2): 126 nM
EC50 (run 3): 200 nM

CCCc1cc(C(=O)N(C2CCCCC2)C2CCCCC2)no1
EC50 (run 1): 495 nM
EC50 (run 2): 335 nM
EC50 (run 3): 471 nM

O=C(c1cc(-c2ccccc2)on1)N(C1CCCCC1)C1CCCCC1
EC50 (run 1): 216 nM
EC50 (run 2): 35.2 nM
EC50 (run 3): 58.9 nM

O=C(c1cc(C2CC2)on1)N(C1CCCCC1)C1CCOCC1
EC50 (run 1): 3830 nM
EC50 (run 2): 3730 nM
EC50 (run 3): 3050 nM

COc1ccc(-c2cc(C(=O)N(C3CCCCC3)C3CCCCC3)no2)cc1
EC50 (run 1): 583 nM
EC50 (run 2): 173 nM
EC50 (run 3): 212 nM
